This is an account of results in PubChem BioAssay AID256 (DTP/NCI, 2004).

Several values for one entry are separate records, joined by “and”; a condition that tells them apart may be missing. Identical values can stand only once. Inconclusive results and toxic doses are left out.

For this assay, the system named is CD2F1 mice, L1210 leukemia ip, survival T/C. The assay is described as follows: NCI In Vivo Anticancer Drug Screen. Data for tumor model L1210 Leukemia (intraperitoneal) in CD2F1 (CDF1) mice. As to conditions: higher = longer survival. Summed up: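 Implant tumor; dose compound or vehicle; measure endpoint in both groups; report treated divided by control.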
Setting [1] is: endpoint: mean survival time, dose: 100.0 mg/kg/injection, schedule: Q01DX009 (ip), vehicle: saline with Tween-80.
[2] abbreviates: endpoint: mean survival time, dose: 200.0 mg/kg/injection, schedule: Q01DX009 (ip), vehicle: saline with Tween-80.
The mark [3] stands for this setting: endpoint: mean survival time, dose: 400.0 mg/kg/injection, schedule: Q01DX009 (ip), vehicle: saline with Tween-80.
Setting [4] is: endpoint: mean survival time, dose: 25.0 mg/kg/injection, schedule: Q01DX009 (ip), vehicle: Klucel (hydroxypropylcellulose) (HPC).
Where [5] appears, read: endpoint: mean survival time, dose: 50.0 mg/kg/injection, schedule: Q01DX009 (ip), vehicle: Klucel (hydroxypropylcellulose) (HPC).
Setting [6] is: endpoint: mean survival time, dose: 100.0 mg/kg/injection, schedule: Q04DX003 (ip), vehicle: saline with Tween-80.
[7] abbreviates: endpoint: mean survival time, dose: 200.0 mg/kg/injection, schedule: Q04DX003 (ip), vehicle: saline with Tween-80.
[8] abbreviates: endpoint: mean survival time, dose: 400.0 mg/kg/injection, schedule: Q04DX003 (ip), vehicle: saline with Tween-80.
The mark [9] stands for this setting: endpoint: mean survival time, dose: 100.0 mg/kg/injection, schedule: Q04DX003 (ip), vehicle: saline.
The mark [10] stands for this setting: endpoint: mean survival time, dose: 50.0 mg/kg/injection, schedule: Q01DX009 (ip), vehicle: saline with Tween-80.
[11] abbreviates: endpoint: mean survival time, dose: 12.5 mg/kg/injection, schedule: Q04DX003 (ip), vehicle: distilled water + Tween-80.
[12] abbreviates: endpoint: mean survival time, dose: 25.0 mg/kg/injection, schedule: Q04DX003 (ip), vehicle: distilled water + Tween-80.
Where [13] appears, read: endpoint: mean survival time, dose: 100.0 mg/kg/injection, schedule: Q04DX002 (ip), vehicle: saline with Tween-80.
[14] abbreviates: endpoint: mean survival time, dose: 200.0 mg/kg/injection, schedule: Q04DX002 (ip), vehicle: saline with Tween-80.
[15] abbreviates: endpoint: mean survival time, dose: 100.0 mg/kg/injection, schedule: Q01DX009 (ip), vehicle: saline.
Setting [16] is: endpoint: mean survival time, dose: 200.0 mg/kg/injection, schedule: Q01DX009 (ip), vehicle: saline.
The mark [17] stands for this setting: endpoint: mean survival time, dose: 50.0 mg/kg/injection, schedule: Q01DX009 (ip), vehicle: saline.

For `CCOC(C)C(O)(c1ccc(N(C)C)cc1)c1ccc(N(C)C)cc1` (configuration not stated), the T/C by setting is: (endpoint: mean survival time, dose: 100.0 mg/kg/injection, schedule: Q04DX003 (ip), vehicle: other) 95 % of control; (endpoint: mean survival time, dose: 200.0 mg/kg/injection, schedule: Q04DX003 (ip), vehicle: other) 91 % of control; (endpoint: mean survival time, dose: 400.0 mg/kg/injection, schedule: Q04DX003 (ip), vehicle: other) 97 % of control.

On to `Cc1ccc(NS(=O)(=O)c2ccc([N+](=O)[O-])cc2)cc1`, for which the T/C is 93 % of control under setting [1], 98 % of control under setting [2] and 105 % of control under setting [3].

In the case of `CCCCCCCCCCCCCCCC(=O)N(CCC#N)C(C)(C)CCC(C)(C)N(CCC#N)C(=O)CCCCCCCCCCCCCCC`, the T/C reads like this: under setting [4], 95 % of control; under setting [5], 95 % of control; (endpoint: mean survival time, dose: 100.0 mg/kg/injection, schedule: Q01DX009 (ip), vehicle: Klucel (hydroxypropylcellulose) (HPC)) 88 % of control; (endpoint: mean survival time, dose: 200.0 mg/kg/injection, schedule: Q01DX009 (ip), vehicle: Klucel (hydroxypropylcellulose) (HPC)) 88 % of control.

Turning to `CS(=O)(=O)OCC(OS(C)(=O)=O)C(OS(C)(=O)=O)C(OS(C)(=O)=O)C(COS(C)(=O)=O)OS(C)(=O)=O` (configuration not stated), the T/C reads like this: (endpoint: mean survival time, dose: 12.5 mg/kg/injection, schedule: Q01DX009 (ip), vehicle: Klucel (hydroxypropylcellulose) (HPC)) 101 % of control; under setting [4], 104 % of control; under setting [5], 101 % of control.

Turning to `C=CCC(C)(C#N)C1C=CCC1` (configuration not stated), the T/C runs as follows: under setting [1], 105 % of control; under setting [6], 102 % of control; under setting [2], 102 % of control; under setting [7], 100 % of control; under setting [3], 103 % of control; under setting [8], 93 % of control.

Turning to `c1nc(N2CC2)c2cnn(C3CCCCO3)c2n1` (configuration not stated), the T/C by setting is: (endpoint: mean survival time, dose: 25.0 mg/kg/injection, schedule: Q04DX003 (ip), vehicle: saline) 96 % of control; (endpoint: mean survival time, dose: 50.0 mg/kg/injection, schedule: Q04DX003 (ip), vehicle: saline) 103 % of control; under setting [9], 100 % of control.

For the compound `NNC(=O)CCCCC(=O)NN`, the T/C runs as follows: under setting [9], 97 % of control; (endpoint: mean survival time, dose: 200.0 mg/kg/injection, schedule: Q04DX003 (ip), vehicle: saline) 100 % of control; (endpoint: mean survival time, dose: 400.0 mg/kg/injection, schedule: Q04DX003 (ip), vehicle: saline) 99 % of control.

In the case of `Nc1cc(Cl)c(O)c(Cl)c1`, the T/C (endpoint: mean survival time, dose: 100.0 mg/kg/injection, schedule: Q01DX001 (ip), vehicle: saline with Tween-80) is 92 % of control.

Consider `C=CC(C)(C)c1ccccc1`, for which the T/C under setting [10] was 93 % of control, the T/C under setting [1] was 96 % of control and the T/C under setting [2] is 98 % of control.

Consider `O=C1CCCCCC1c1ccccc1` (configuration not stated), for which the T/C by setting is: under setting [1], 102 % of control; under setting [2], 102 % of control; under setting [3], 98 % of control.

`CN(C)N=Nc1c(F)c(F)c(C(N)=O)c(F)c1F`: the T/C is, setting by setting: (endpoint: mean survival time, dose: 3.13 mg/kg/injection, schedule: Q01DX009 (ip), vehicle: other) 115 % of control; (endpoint: mean survival time, dose: 6.25 mg/kg/injection, schedule: Q01DX009 (ip), vehicle: other) 120 % of control; (endpoint: mean survival time, dose: 50.0 mg/kg/injection, schedule: Q01DX009 (ip), vehicle: other) 96 % of control; (endpoint: mean survival time, dose: 100.0 mg/kg/injection, schedule: Q01DX009 (ip), vehicle: other) 105 % of control.

As to `CCC12C(=O)C(CC)(C3=C1c1cccc4cccc3c14)C1C(=O)OC(=O)C12` (configuration not stated), the T/C was 97 % of control under setting [6], 97 % of control under setting [7] and 97 % of control under setting [8].

On to `O.[Cl][Pt].[NH-]CC[S-]`, for which the T/C by setting is: under setting [11], 90 % of control; under setting [12], 102 % of control; (endpoint: mean survival time, dose: 50.0 mg/kg/injection, schedule: Q04DX003 (ip), vehicle: distilled water + Tween-80) 95 % of control; (endpoint: mean survival time, dose: 100.0 mg/kg/injection, schedule: Q04DX003 (ip), vehicle: distilled water + Tween-80) 100 % of control.

As to `Cc1c(OCC(=O)O)cc(Cl)c(Cl)c1Cl`, the T/C reads like this: (endpoint: mean survival time, dose: 50.0 mg/kg/injection, schedule: Q04DX002 (ip), vehicle: saline with Tween-80) 105 % of control; under setting [13], 102 % of control; under setting [14], 121 % of control.

`CCCCOCC(C)O` (configuration not stated): the T/C was 97 % of control under setting [15]; 101 % of control under setting [16]; 100 % of control (endpoint: mean survival time, dose: 400.0 mg/kg/injection, schedule: Q01DX009 (ip), vehicle: saline).

With `O=C(O)C1SCCCS1`, the T/C by setting is: (endpoint: mean survival time, dose: 12.5 mg/kg/injection, schedule: Q04DX002 (ip), vehicle: saline) 105 % of control; (endpoint: mean survival time, dose: 25.0 mg/kg/injection, schedule: Q04DX002 (ip), vehicle: saline) 94 % of control; (endpoint: mean survival time, dose: 50.0 mg/kg/injection, schedule: Q04DX002 (ip), vehicle: saline) 94 % of control.

As for `O=c1ccn(CC(O)c2cc3ccccc3[nH]2)c(=O)[nH]1` (configuration not stated), the T/C under setting [13] is 112 % of control; the T/C under setting [14] is 112 % of control; the T/C (endpoint: mean survival time, dose: 400.0 mg/kg/injection, schedule: Q04DX002 (ip), vehicle: saline with Tween-80) is 108 % of control.

Consider `CCCC/C=C\C1CCCCC1C` (configuration not stated), for which the T/C is 87 % of control under setting [10], 96 % of control under setting [1] and 104 % of control under setting [2].

Consider `O=[N+]([O-])c1ccc(/C=C/C=C/c2ccc(Cl)cc2Cl)cc1`, for which the T/C by setting is: under setting [6], 97 % of control; under setting [7], 104 % of control; under setting [8], 98 % of control.

For `CC(=O)Oc1c(C)[nH]ccc1=O`, the T/C by setting is: (endpoint: mean survival time, dose: 25.0 mg/kg/injection, schedule: Q01DX009 (ip), vehicle: saline with Tween-80) 97 % of control; (endpoint: mean survival time, dose: 25.0 mg/kg/injection, schedule: Q01DX009 (ip), vehicle: saline) 100 % of control; under setting [10], 113 % of control and 107 % of control; under setting [17], 100 % of control; under setting [1], 118 % of control and 122 % of control; under setting [15], 111 % of control. The T/C by setting is: under setting [2], 150 % of control; under setting [16], 122 % of control; under setting [3], 157 % of control.

Take `COC1=C(C)C(=O)C2=C(C1=O)C(CO)N1C(C#N)C3CC4C(C1C2N1CCOC41)N3C` (configuration not stated): the T/C is 102 % of control (endpoint: median survival time, dose: 0.12 mg/kg/injection, schedule: Q01DX005 (ip), vehicle: acid diluted with saline); 111 % of control (endpoint: median survival time, dose: 0.12 mg/kg/injection, schedule: Q01DX009 (ip), vehicle: saline + alcohol); 102 % of control (endpoint: median survival time, dose: 0.25 mg/kg/injection, schedule: Q01DX005 (ip), vehicle: acid diluted with saline); 113 % of control (endpoint: median survival time, dose: 0.25 mg/kg/injection, schedule: Q01DX009 (ip), vehicle: saline + alcohol); 105 % of control (endpoint: median survival time, dose: 0.5 mg/kg/injection, schedule: Q01DX005 (ip), vehicle: acid diluted with saline); 111 % of control (endpoint: median survival time, dose: 0.5 mg/kg/injection, schedule: Q01DX009 (ip), vehicle: saline + alcohol). In addition, the T/C was 104 % of control (endpoint: median survival time, dose: 1.0 mg/kg/injection, schedule: Q01DX005 (ip), vehicle: acid diluted with saline) and 108 % of control (endpoint: median survival time, dose: 1.0 mg/kg/injection, schedule: Q01DX009 (ip), vehicle: saline + alcohol).

In the case of `O=C(c1ccccc1)C(Cl)Cl`, the T/C reads like this: under setting [17], 95 % of control; under setting [1], 108 % of control; under setting [15], 95 % of control; under setting [16], 106 % of control; under setting [3], 86 % of control.

In the case of `NC1CS(=O)(=O)CC1O` (configuration not stated), the T/C by setting is: under setting [6], 98 % of control; under setting [7], 96 % of control; under setting [8], 95 % of control.

Turning to `CCCCOC(=S)SCCSC(=S)OCCCC`, the T/C by setting is: under setting [1], 101 % of control; under setting [2], 98 % of control.

As for `O=S(=O)(O)O.[Pt].c1ccc([PH+](c2ccccc2)c2ccccc2)cc1.c1ccc([PH+](c2ccccc2)c2ccccc2)cc1.c1ccc([PH+](c2ccccc2)c2ccccc2)cc1`, the T/C is 102 % of control (endpoint: mean survival time, dose: 3.12 mg/kg/injection, schedule: Q04DX003 (ip), vehicle: distilled water + Tween-80); 102 % of control (endpoint: mean survival time, dose: 6.25 mg/kg/injection, schedule: Q04DX003 (ip), vehicle: distilled water + Tween-80); 105 % of control under setting [11]; 102 % of control under setting [12].
